Tested on: Arabidopsis thaliana leaves
Test: Non-targeted metabolomics of Arabidopsis thaliana leaves treated with short peptide
Format: in vivo
Conditions: 0.01 mg/mL, vs GFP control
Method: In this experiment, the materials used for metabonomics analysis and phytohormone detection are Arabidopsis thaliana samples with consistent growth status. Synthetic short peptide of GSS1-PI with the corresponding concentration and mass was weighed and dissolved in 0.1% DMSO to obtain a 0.01 mg/mL treatment solution. A wild-type Arabidopsis thaliana plant of about four weeks old was taken, two cotyledons were collected and mechanically damaged to obtain three small holes, 2 μL of the GSS1-PI solution was added dropwise into each small hole, while GFP solution was used as the control group. After 24 h and 48 h of treatment, approximately 0.2 g of Arabidopsis thaliana leaves were collected, and each treatment had three biological replicates. The leaves were quickly placed in liquid nitrogen and stored in a −80° C. ultra-low temperature refrigerator for subsequent phytohormone group detection and metabolomic analysis.
100 mg of Arabidopsis thaliana leaves was taken and added with liquid nitrogen for full grinding, and the fine powder was put in a 1.5 mL centrifuge tube. 500 μL of 80% methanol aqueous solution was pipette in the centrifuge tube and subjected to vortex oscillation to mix well, and the centrifuge tube was put on ice for 5 min. After standing, the mixture was centrifuged at 15000 g at 4° C. for 20 min. Then, 200 μL of supernatant was pipette and diluted with appropriate amount of mass spectrometry water until the methanol content in the solution was 53%. The dilution was centrifuged again for 20 min, the supernatant was retained and loaded for LC-MS analysis of the sample.
Related instruments were set as follows: chromatographic column temperature: 40° C.; injection flow rate: 0.2 mL/min; Positive ion mode: 0.1% formic acid for mobile phase A; mass grade methanol for mobile phase B; Negative ion mode: 5 mM ammonium acetate for mobile phase A, and mass grade methanol for mobile phase B.
The scanning range was m/z 100-1500: the setting of ESI signal source was as follows: spray voltage: […]; sheath gas flow rate: 35 psi; auxiliary gas flow rate: 10 L/min; ion transport tube temperature: 320° C.; iontophoresis RF frequency: 60; auxiliary heater temperature: 350° C.; MS/MS secondary scanning is set to dependency scanning data.
After the experiment was completed, the relevant data files were imported into the database search software for analysis and processing, and the residence time, mass-to-charge ratio and other related parameters of each metabolite were simply screened and checked. In order to identify more accurately, the different samples were peak-aligned, with the retention time deviation of 0.2 min and mass deviation of 5 ppm. Then peak extraction and peak area quantification were carried out to integrate the target ions, and then ion peaks were predicted by molecular formula and compared with local data. In order to remove the interference of background ions, the original quantitative results were standardized and blank sample controls were added. Finally, the relative quantitative results of the relevant metabolites were obtained and identified.
Multivariate statistical analysis of metabolite data included two parts, component analysis (PCA) and partial least squares discriminant analysis (PLS-DA). The data was converted by metaX, a metabonomics processing software, to get the VIP value of each metabolite. In univariate analysis, the statistical significance (P value) between the two groups of metabolites was analyzed by t test, and the fold change of metabolites between the two groups, that is, FC value, was calculated. The default screening criteria for differential metabolites were VIP>1, P value<0.05 and FC≥2 or FC≤0.5.

PDYKQKLRDSKAWESLETIGIPLDADVM (insect-derived short peptide) [GSS1-PI]
log2FC 2-Phenylacetamide (24 h): 0.608
log2FC 3,4,5-Trimethoxycinnamic acid (24 h): −1.348
log2FC (−)-chimonanthine (24 h): 0.731
log2FC Coumarin (24 h): −1.039
log2FC Cytosine (24 h): 1.096
log2FC Eriodictyol (24 h): 0.908
log2FC Gracillin (24 h): −1.823
log2FC Hesperidin (24 h): 0.708
log2FC Hippuric acid (24 h): −0.465
log2FC L-arginine (24 h): −0.600
log2FC Madecassic acid (24 h): 1.041
log2FC Methyl dihydrojasmonate (24 h): 0.784
log2FC N-Methyltryptamine (24 h): −0.651
log2FC Ptaquiloside (24 h): −1.418
log2FC Quercetin 3-O-sophoroside (24 h): −2.173
log2FC Rhoifolin (24 h): 0.699
log2FC Spectinomycin (24 h): 0.579
log2FC Tiglic acid (24 h): −0.663
log2FC cis-2-Decenoic acid (24 h): −0.599
log2FC α-Linolenoyl ethanolamide (24 h): 1.586
log2FC 2′-O-Methyladenosine (48 h): 1.543
log2FC 3,4,5-Trimethoxycinnamic acid (48 h): −2.132
log2FC 5α-Dihydrotestosterone glucuronide (48 h): −1.186
log2FC 5′-Deoxy-5′-(Methylthio)Adenosine (48 h): 1.330
log2FC 20-Hydroxyecdysone (48 h): −1.153
log2FC Allantoic acid (48 h): −1.815
log2FC Alpha-Mangostin (48 h): 1.363
log2FC Benzamide (48 h): 1.564
log2FC Camelliaside A (48 h): 1.640
log2FC Cimifugin (48 h): 1.872
log2FC Coumarin (48 h): −1.930
log2FC Cucurbitacin E (48 h): 1.309
log2FC DL-Methionine (48 h): 1.393
log2FC DL-Panthenol (48 h): 1.615
log2FC N-(p-Coumaroyl) serotonin (48 h): −1.010
log2FC Neopterin (48 h): 1.709
log2FC Saikosaponin B4 (48 h): −1.655
log2FC Sclareolide (48 h): −2.003
log2FC Scopoletin (48 h): −1.518
log2FC Sinapinic acid (48 h): −1.203
